Data reported in ChEMBL document CHEMBL1201862, “PubChem BioAssay data set” (2004).
Activity calls are given as the source filed them. Unless noted, the rule behind the calls is not given here.

Assays:
[1] = biological target: Troponin, cardiac muscle (Homo sapiens, UniProt P19429+P45379+P63316); experiment: Fluorescence-based biochemical high throughput dose response assay for activators of the calcium sensitivity of cardiac Regulated Thin Filaments (RTF). [Related pubchem assays (depositor defined):AID493008, AID493018, AID504382, AID504383]; format: protein-complex assay
[2] = cytotoxicity in BJeH fibroblasts, dose response, counter-screen for Ras selective lethality project, BJeH cells, dry powder (AID 493054); format: functional, cell-based
[3] = cytotoxicity in BJeHLT fibroblasts, dose response, counter-screen for Ras selective lethality project, BJeHLT cells, dry powder (AID 493052); format: functional, cell-based; conditions: Homo sapiens
[4] = viability loss in HRASV12 DRD fibroblasts, dose response, cell-based, DRD BJ fibroblasts, dry powder (AID 493049); format: functional
[5] = viability loss in BJeLR (HRASV12) cells, primary screen, Ras selective lethality project, cell-based, Alamar Blue, dry powder (AID 493045); format: functional
[6] = biological target: T1, Coagulation factor XII (Homo sapiens, UniProt P00748); format: functional;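 also: activated factor XIIa alpha cleaving a fluorogenic AMC peptide substrate; inhibitor potency from loss of enzyme activity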
T1 sequence (P00748 whole entry): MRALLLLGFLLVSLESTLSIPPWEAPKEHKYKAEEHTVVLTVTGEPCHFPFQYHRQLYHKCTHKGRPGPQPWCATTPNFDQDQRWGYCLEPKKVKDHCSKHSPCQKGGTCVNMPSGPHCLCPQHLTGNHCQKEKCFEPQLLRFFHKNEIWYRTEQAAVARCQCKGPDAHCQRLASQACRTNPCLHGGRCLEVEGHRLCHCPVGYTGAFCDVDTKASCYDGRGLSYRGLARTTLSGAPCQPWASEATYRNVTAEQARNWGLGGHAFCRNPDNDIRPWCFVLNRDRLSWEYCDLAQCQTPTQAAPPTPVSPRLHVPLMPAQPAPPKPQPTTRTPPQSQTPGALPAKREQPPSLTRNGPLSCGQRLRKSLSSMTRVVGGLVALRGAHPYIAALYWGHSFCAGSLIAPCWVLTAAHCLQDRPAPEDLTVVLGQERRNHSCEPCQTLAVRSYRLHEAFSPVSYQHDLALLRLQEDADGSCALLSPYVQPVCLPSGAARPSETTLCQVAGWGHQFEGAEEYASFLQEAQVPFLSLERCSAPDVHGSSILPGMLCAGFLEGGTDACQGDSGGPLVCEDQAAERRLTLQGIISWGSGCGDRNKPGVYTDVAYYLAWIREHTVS

| Compound | EC50 [1] | AC50 [2] | AC50 [3] | AC50 [4] | AC50 [5] | IC50 [6] |
| --- | --- | --- | --- | --- | --- | --- |
| CCOC(=O)c1sc(N)c(C#N)c1COC(=O)CNC(=O)c1cc(OC)c(OC)c(OC)c1 | 11100 nM (inactive) |  |  |  |  |  |
| COc1ccc(N(C(=O)CCl)C(C(=O)NC2CCCCC2)c2cccs2)cc1Cl (stereo not given) |  | 455 nM (active) | 270 nM (active) | 120 nM (active) | 113 nM (active) |  |
| CC(=O)Nc1nonc1NC(=O)CSc1ccccn1 |  |  |  |  |  | > 50000 nM (inactive) |
| COc1ccc(N(C(=O)CCl)C(C(=O)NCn2nnc3ccccc32)c2cccs2)cc1Cl (stereo not given) |  | 432 nM (active) | 242 nM (active) | 97 nM (active) | 102 nM (active) |  |
